Reference: patent US20250241942A1, “METHODS OF SYNTHESIZING CONDUCTIVE POLYMERS IN BIOLOGICAL SYSTEMS AND METHODS OF USING CONDUCTIVE POLYMERS” (Purdue Research Foundation, priority 2024, published 2025)
Where two headings read alike, the source gives them in different places.

Experiments:
zebrafish embryos = assay: BDF injection into the vasculature of zebrafish embryos, in vivo polymerization and viability
Procedure: Finally, BDF monomer with 1% w/w TPGS in the PBS media solution was injected in the vasculature of 3-day post-fertilization zebrafish embryos to validate the whole blood catalyzed in vivo polymerization of BDF to synthesize n-PBDF. The fish embryos were injected at the end of the tail (FIG. 5A) with different BDF concentrations from 1 mM to 15 mM and kept inside an incubator at 34° C. […] To prevent the misconception of pigmentation in the skin of the embryos as a darkened yolk, zebrafish embryos were treated with 1-phenyl 2-thiourea (PTU). PTU treatment removed the pigment from the skin, allowing for better visualization of the darkening of the embryo's yolk (FIG. 5C). In the case of a 1 mM BDF concentration injection, a clear yolk was observed similar to that seen in control zebrafish embryos. Significant darkening happened when the concentration was increased to 10 mM. Furthermore, 15 mM BDF concentration was injected into the zebrafish embryo, where the yolk was even darker with respect to the 10 mM BDF concentration injection. To characterize the darkened yolk, UV-Vis-NIR measurements were collected on all zebrafish embryos with different concentrations of BDF injections along with the control fish (only PBS injection). […]

[1] = Solubility of BDF monomer; assay type: physicochemical
Source text: Though existing methods of synthesizing n-PBDF are efficient, they are unsuitable within living systems. […] Existing synthesis methods also require high temperatures and employ dimethyl sulfoxide (DMSO) as a solvent. To overcome this limitation, methods were investigated for synthesizing n-PBDF in aqueous media using surfactants, which are also utilized in the synthesis of conductive polymer nanoparticles. […] Using TPGS as a surfactant, n-PBDF can be polymerized in aqueous media through emulsion polymerization. By incorporating an insignificant amount (5%) of DMSO and 1% w/w TPGS, this method was found suitable for use in biological systems, as discussed below.

[2] = Subcutaneous administration of BDF and n-PBDF solutions in mice, observation and complete blood count; settings: mouse, in vivo, sc
Source text: Furthermore, the non-toxicity of the polymerization process and the resulting polymer was confirmed by subcutaneously administering BDF and n-PBDF solutions in mice. […] The investigations reported below explored the use of n-PBDF to modulate the neural activity of cortical pyramidal neurons in mice acute brain slices, showing the interaction of n-PBDF with the neurons at a cellular level, leading to a decrease in the intrinsic excitability of the neurons. […] These and other aspects of the method will be more fully appreciated from the following discussion of the investigations.

A549 lung cancer cells = assay type: cell-based
Source text: Because the BDF monomer can lyse the RBCs, the cytotoxicity of the BDF monomer and n-PBDF in A549 lung cancer cells was further studied. It was observed that the n-PBDF polymer is non-toxic to cancer cells, with cell viability remaining close to 100% regardless of the polymer concentration. […] Although the BDF monomer is toxic in cancer cells, it may not impede the in vivo polymerization process, as once the polymerization reaction begins, the toxicity quickly diminishes.

red blood cells = assay: Hemolysis assay on reaction components; assay type: cell-based; settings: 0.2 mg/mL
Procedure: To evaluate the efficacy of polymerization without the need for constant stirring, a method was employed whereby the solution was placed in an incubator with a rocker at 37° C. Upon introduction of whole blood into the reaction vessel without stirring, a sluggish reaction was observed, and the vessel turned black after three hours into the reaction. […] Based on these observations from the reaction without stirring, it was deduced the lysis of the RBCs with the BDF monomer. To confirm, a hemolysis assay was used on the various reaction components and with different BDF concentrations. […] This explained the initial slow reaction and formation of n-PBDF without stirring.

[3] = system: primary motor cortex (M1); parameters: species or system mice; settings: mouse, in vivo

Molecule | embryos alive (zebrafish embryos; after 24 h incubation, BDF 1 mM to 15 mM, 34° C.) | toxicity of BDF injection and in vivo polymerization (zebrafish embryos; zebrafish embryos) | solubility in aqueous media ([1]; aqueous media) | solubility in organic solvents ([1]; organic solvents) | complete blood count (CBC), signs of acute toxicity [2] | physical stress or discomfort [2] | cell viability (A549 lung cancer cells) | cell viability (A549 lung cancer cells; human, 72 h, 5 μg/mL) | cell viability (A549 lung cancer cells; human, 72 h, 0.167 mg/mL) | hemolysis (red blood cells) | retention at the injection site [3]
O=C1Cc2cc3c(cc2O1)CC(=O)O3 [BDF, 3,7-dihydrobenzo[1,2-b:4,5-b′]difuran-2,6-dione] | at least 80% | almost no toxicity | insoluble | limited solubility | no signs of acute toxicity except for a minor level of hemolysis | No physical stress or discomfort was observed | slightly improved cell viability at higher concentrations | approximately 75% | around 10% | approximately 40% | 
n-doped poly(3,7-dihydrobenzo[1,2-b:4,5-b′]difuran-2,6-dione [n-PBDF] |  |  |  |  |  |  | ~100% |  |  |  | remained in the injection site for extended periods
